Legend:
IL-6 cytokine = test: Secreted IL-6 in LPS-treated human primary glial cells (MSD ELISA); format: cell-based; conditions: LPS 6 h, then purine derivative 10 μM for 18 h
Protocol: For assessing the cytokine production, human primary glial cells were grown until confluent on coated collagen 12-well plates. Cells were serum-starved in glial serum-free medium for 2 h and treated with LPS for 6 h before treatment with purine derivatives (10 μM) for an additional 18 h. Supernatants were harvested and secreted IL-6 cytokine was measured by ELISA by the mean of the Meso Scale Discovery (MSD) technology. Briefly, a 96-well plate having 1 spot pre-coated with the corresponding antibody is provided by MSD Technology. Before adding the samples, a first saturation step is required. Once the plate is saturated and washed, 25 μL of sample (or calibrators) per well are loaded and incubated for 1 hour. Then the plate is washed and incubated with 25 μL of the Detection Antibody solution (MSD SULFO-TAG) for 1 hour. At the end of the incubation, the plate is washed and then a chemical solution (Read buffer 1×) is added allowing electrochemiluminescence. After a short incubation (5 min) at room temperature, the plate is read on the QUICK Plex SQ120. The instrument measures the intensity of the light electrochemiluminescence.

p-Tau (Thr212) = test: p-Tau (Thr212)/total Tau in rat cortical neurons (western-blot); format: cell-based; conditions: purine derivative 10 μM (A100), 18 h
Protocol: Cells were lysed in freshly prepared lysis buffer containing in mM: Tris-HCl 50, EDTA 2, EGTA 2, NaCl 100, SDS 0.2%, Triton X-100 1%, proteases inhibitors (Roche Protease Inhibitor Cocktail #04693116001), phosphatases inhibitors (in mM: ammonium molybdate 0.1, β-glycerophosphate 20, NaF 50, Na-pyrophosphate 10, Orthovanadate 1). Protein concentration was measured by the Bradford assay and Laemmli buffer was added to each lysate. Proteins (10 μg per lane) were resolved on 12% Nu-PAGE (LifeTechonoliges #NP0342BOX) using MOPS SDS running buffer and transferred on Immobilon-FL PVDF membrane (Millipore #IPFL00010). Membranes were blocked one hour in TBS Tween20 0.1% BSA 5% at room temperature. Primary antibodies were incubated O/N at 4° C. and detected by Alexa 488 conjugated secondary antibodies (Life Techonologies #A11034 and A11029) diluted 1:1.000 in TBS Tween20 0.05% and 1% BSA. The antibodies specific for pThr212-Tau (Abcam #ab4842), pThr181-Tau (AbCam #ab75679), Tau (Millipore #MAB361), APP (Millipore #07-667) and Actin (Millipore #MAB1501) were diluted in TBS Tween20 0.05% and 1% BSA. Fluorescent signal was visualized with the VersaDoc™ Imaging System (Bio-Rad Laboratories) and quantified with Quantity One® Analysis Software. Grey levels measured for bands of interest were normalized to the corresponding actin bands.
For assessing the protein Tau's phosphorylation, the culture media of rat cortical neurons were replaced by incubation medium containing purine derivatives at 10 μM (A100) or vehicle (0.1% DMSO; Control). After 18 h incubation p-Tau (Thr212) and total Tau were quantified in the cellular extracts by western-blot.

SMILES | Anti-inflammatory Compounds (secreted IL-6) (IL-6 cytokine) | Attenuation of P-Tau/Tau ratio (p-Tau (Thr212))
CC[C@H](CO)Nc1nc(N(C)Cc2ccccc2)c2ncn(C(C)C)c2n1 [Aftin-4] | +(>1 μM) (“+” means that the tested compound shows an anti-inflammatory and/or attenuation of Tau's phosphorylation property with a concentration higher than 1 μM) | 
CC[C@H](CO)Nc1nc(N(CC)Cc2ccccc2)c2ncn(C(C)C)c2n1 [Compound 13] | +(>1 μM) (“+” means that the tested compound shows an anti-inflammatory and/or attenuation of Tau's phosphorylation property with a concentration higher than 1 μM) | +(>1 μM) (“+” means that the tested compound shows an anti-inflammatory and/or attenuation of Tau's phosphorylation property with a concentration higher than 1 μM)
CC[C@H](CO)Nc1nc(N(C)Cc2ccccc2)c2ncn(C3CCCC3)c2n1 [Compound 14] | +(>1 μM) (“+” means that the tested compound shows an anti-inflammatory and/or attenuation of Tau's phosphorylation property with a concentration higher than 1 μM) | +(>1 μM) (“+” means that the tested compound shows an anti-inflammatory and/or attenuation of Tau's phosphorylation property with a concentration higher than 1 μM)
CCN(Cc1ccccc1)c1nc(N[C@@H](CO)C(C)C)nc2c1ncn2C1CCCC1 [Compound 15] | +(>1 μM) (“+” means that the tested compound shows an anti-inflammatory and/or attenuation of Tau's phosphorylation property with a concentration higher than 1 μM) | +(>1 μM) (“+” means that the tested compound shows an anti-inflammatory and/or attenuation of Tau's phosphorylation property with a concentration higher than 1 μM)
CCCN(Cc1ccccc1)c1nc(N[C@H](CC)CO)nc2c1ncn2C(C)C [Compound 20] | +(>1 μM) (“+” means that the tested compound shows an anti-inflammatory and/or attenuation of Tau's phosphorylation property with a concentration higher than 1 μM) | +(>1 μM) (“+” means that the tested compound shows an anti-inflammatory and/or attenuation of Tau's phosphorylation property with a concentration higher than 1 μM)
CCN(CC)CCNc1nc(N(CC)Cc2ccccc2)c2ncn(C3CCCC3)c2n1 [Compound 22] | +(>1 μM) (“+” means that the tested compound shows an anti-inflammatory and/or attenuation of Tau's phosphorylation property with a concentration higher than 1 μM) | +(>1 μM) (“+” means that the tested compound shows an anti-inflammatory and/or attenuation of Tau's phosphorylation property with a concentration higher than 1 μM)
CC[C@@H](CO)Nc1nc(N(C)c2ccccc2)c2ncn(C(C)C)c2n1 [Compound 26] | +(>1 μM) (“+” means that the tested compound shows an anti-inflammatory and/or attenuation of Tau's phosphorylation property with a concentration higher than 1 μM) | 
CC[C@H](CO)Nc1nc(OCc2ccccc2)c2ncn(C(C)C)c2n1 [Compound 31] | +(>1 μM) (“+” means that the tested compound shows an anti-inflammatory and/or attenuation of Tau's phosphorylation property with a concentration higher than 1 μM) | +(>1 μM) (“+” means that the tested compound shows an anti-inflammatory and/or attenuation of Tau's phosphorylation property with a concentration higher than 1 μM)
CC[C@H](CO)Nc1nc(NCc2ccccc2)c2ncn(C(C)C)c2n1 [Roscovitine, (R)-roscovitine, reference compound] | +(>1 μM) (“+” means that the tested compound shows an anti-inflammatory and/or attenuation of Tau's phosphorylation property with a concentration higher than 1 μM) | 
